Assay type in all cases: biochemical
One assay has as its target T1, human Src enzyme (Homo sapiens, UniProt P12931).
T1 construct: purchased Carna Biosciences, Inc. 08-173
Nature of the assay: Src enzyme inhibitory activity (time-resolved fluorometry, biotinylated peptide phosphorylation). Particulars: biotinylated peptide phosphorylation, read-out: SRC_IC50. The method, boiled down:
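Compounds were tested for blocking tyrosine phosphorylation of a biotinylated peptide substrate by recombinant human Src. Phosphorylated product was quantified by time-resolved fluorometry using europium cryptate and XL665 conjugates, and IC50 was calculated against the compound-free control.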

The next assay addresses T2, human Yes1 enzyme (Homo sapiens, UniProt P07947).
T2 construct: made in house
Put plainly: Yes1 enzyme inhibitory activity (time-resolved fluorometry, biotinylated peptide phosphorylation). The conditions noted are these: biotinylated peptide phosphorylation, read-out: YES_IC50. The method, boiled down: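 Inhibition was expressed against a compound-free control to give IC50, using TR-FRET read-out (Eu-cryptate anti-pTyr antibody, streptavidin-XL665).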

The next assay has as its target T3, human Lck enzyme (Homo sapiens, UniProt P06239).
T3 construct: purchased Carna Biosciences, Inc. 08-170
Put plainly: Lck enzyme inhibitory activity (time-resolved fluorometry, biotinylated peptide phosphorylation). Particulars: biotinylated peptide phosphorylation, read-out: LCK_IC50. A digest of the protocol: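 Readout pairs a europium cryptate-labelled anti-phosphotyrosine antibody with XL665-streptavidin, measured by time-resolved fluorescence. IC50 derived from percent inhibition against untreated controls.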

T3 sequence (P06239 whole entry): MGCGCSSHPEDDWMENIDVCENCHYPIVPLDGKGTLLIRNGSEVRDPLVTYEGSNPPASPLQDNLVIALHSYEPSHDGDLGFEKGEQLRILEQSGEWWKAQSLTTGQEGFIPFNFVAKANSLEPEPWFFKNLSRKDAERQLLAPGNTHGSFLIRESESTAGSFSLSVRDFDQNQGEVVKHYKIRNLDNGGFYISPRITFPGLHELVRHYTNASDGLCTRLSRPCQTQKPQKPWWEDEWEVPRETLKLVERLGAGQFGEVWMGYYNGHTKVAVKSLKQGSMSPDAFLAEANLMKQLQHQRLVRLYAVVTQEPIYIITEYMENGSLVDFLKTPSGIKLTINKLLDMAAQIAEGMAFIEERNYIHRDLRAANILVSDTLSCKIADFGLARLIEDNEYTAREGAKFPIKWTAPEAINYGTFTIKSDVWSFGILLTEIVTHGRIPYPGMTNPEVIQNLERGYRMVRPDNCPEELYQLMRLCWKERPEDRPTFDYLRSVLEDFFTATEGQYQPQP
T2 sequence (P07947 whole entry): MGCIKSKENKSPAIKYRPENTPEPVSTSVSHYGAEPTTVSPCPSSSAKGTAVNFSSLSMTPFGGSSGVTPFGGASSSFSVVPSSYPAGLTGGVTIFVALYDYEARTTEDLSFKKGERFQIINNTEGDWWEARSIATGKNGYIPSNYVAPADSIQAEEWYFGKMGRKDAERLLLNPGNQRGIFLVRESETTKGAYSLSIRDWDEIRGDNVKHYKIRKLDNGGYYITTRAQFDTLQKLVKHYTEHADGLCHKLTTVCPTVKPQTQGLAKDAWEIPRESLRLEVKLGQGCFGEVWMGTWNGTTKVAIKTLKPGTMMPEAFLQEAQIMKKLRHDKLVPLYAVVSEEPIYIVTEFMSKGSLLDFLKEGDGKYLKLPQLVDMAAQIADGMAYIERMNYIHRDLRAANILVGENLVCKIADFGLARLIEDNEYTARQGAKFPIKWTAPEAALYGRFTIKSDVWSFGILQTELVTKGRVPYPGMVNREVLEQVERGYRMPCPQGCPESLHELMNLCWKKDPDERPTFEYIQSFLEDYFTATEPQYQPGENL
T1 sequence (P12931 whole entry): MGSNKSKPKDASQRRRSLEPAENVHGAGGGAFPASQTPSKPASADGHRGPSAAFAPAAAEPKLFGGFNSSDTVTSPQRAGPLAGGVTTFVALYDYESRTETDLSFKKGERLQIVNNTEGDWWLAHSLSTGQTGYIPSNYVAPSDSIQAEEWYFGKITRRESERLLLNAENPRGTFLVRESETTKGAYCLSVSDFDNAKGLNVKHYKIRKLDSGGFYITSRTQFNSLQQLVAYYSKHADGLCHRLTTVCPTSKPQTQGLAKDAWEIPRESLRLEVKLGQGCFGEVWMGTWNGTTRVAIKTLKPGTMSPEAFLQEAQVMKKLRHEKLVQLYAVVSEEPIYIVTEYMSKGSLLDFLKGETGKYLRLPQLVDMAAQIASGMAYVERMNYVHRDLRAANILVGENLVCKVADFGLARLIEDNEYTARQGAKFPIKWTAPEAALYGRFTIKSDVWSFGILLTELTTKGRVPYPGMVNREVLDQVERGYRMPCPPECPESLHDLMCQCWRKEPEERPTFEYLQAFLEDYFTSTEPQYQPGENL

As for `Cc1cc(Oc2ccccc2F)ccc1-n1ncc(C(=O)c2cc3cc(OC(F)F)c(N4CCOC4=O)cc3[nH]2)c1N` [Example 4-21-007, 3-[2-[5-amino-1-[4-(2-fluorophenoxy)-2-methylphenyl]pyrazole-4-carbonyl]-5-(difluoromethoxy)-1H-indol-6-yl]-1,3-oxazolidin-2-one], the IC50 at human Src enzyme was 8.7 nM; on human Yes1 enzyme, 0.51 nM; on human Lck enzyme it was 6.5 nM.
On to `Cc1cc(Oc2c(F)cccc2F)ncc1-n1ncc(C(=O)c2cc3cc(OC(F)F)c(N4CCCC4=O)cc3[nH]2)c1N` [Example 4-21-008, 1-[2-[5-amino-1-[6-(2,6-difluorophenoxy)-4-methylpyridin-3-yl]pyrazole-4-carbonyl]-5-(difluoromethoxy)-1H-indol-6-yl]pyrrolidin-2-one], for which the IC50 at human Src enzyme was 25 nM; on human Yes1 enzyme, 4.1 nM; at human Lck enzyme, 6.6 nM.
The matching figures for `Cc1cc(Oc2c(F)cccc2F)ncc1-n1ncc(C(=O)c2cc3cc(OC(F)F)c(N4CCOC4=O)cc3[nH]2)c1N` [Example 4-21-009, 3-[2-[5-amino-1-[6-(2,6-difluorophenoxy)-4-methylpyridin-3-yl]pyrazole-4-carbonyl]-5-(difluoromethoxy)-1H-indol-6-yl]-1,3-oxazolidin-2-one]: 9.9 nM, 0.83 nM and 2.7 nM.
The like results for `Cc1cc(Oc2ccccc2F)ccc1-n1ncc(C(=O)c2cc3cc(OC(F)F)c(NS(=O)(=O)N4CCOCC4)cc3[nH]2)c1N` [Example 4-22-001, N-(2-(5-amino-1-(4-(2-fluorophenoxy)-2-methylphenyl)-1H-pyrazole-4-carbonyl)-5-(difluoromethoxy)-1H-indol-6-yl)morpholine-4-sulfonamide] were, in that order, 90 nM, 2.6 nM and 34 nM.
The matching figures for `Cc1cc(Oc2ccccc2F)ncc1-n1ncc(C(=O)c2cc3cc(OC(F)F)c(NS(=O)(=O)N4CCOCC4)cc3[nH]2)c1N` [Example 4-22-002, N-[2-[5-amino-1-[6-(2-fluorophenoxy)-4-methylpyridin-3-yl]pyrazole-4-carbonyl]-5-(difluoromethoxy)-1H-indol-6-yl]morpholine-4-sulfonamide]: 240 nM, 3 nM and 68 nM.
In the case of `Cc1cc(Oc2c(F)cccc2F)ncc1-n1ncc(C(=O)c2cc3cc(OC(F)F)c(NS(=O)(=O)N4CCOCC4)cc3[nH]2)c1N` [Example 4-22-003, N-[2-[5-amino-1-[6-(2,6-difluorophenoxy)-4-methylpyridin-3-yl]pyrazole-4-carbonyl]-5-(difluoromethoxy)-1H-indol-6-yl]morpholine-4-sulfonamide], the values for the IC50 on human Src enzyme, on human Yes1 enzyme and at human Lck enzyme were 170 nM, 2.9 nM and 62 nM, respectively.
The matching figures for `Cc1cc(Oc2ccccc2F)ncc1-n1ncc(C(=O)c2cc3cc(N4CCOCC4)c(NS(=O)(=O)N4CCOCC4)cc3[nH]2)c1N` [Example 4-22-004, N-[2-[5-amino-1-[6-(2-fluorophenoxy)-4-methylpyridin-3-yl]pyrazole-4-carbonyl]-5-morpholin-4-yl-1H-indol-6-yl]morpholine-4-sulfonamide]: 360 nM, 1.2 nM and 78 nM.
Consider `Cc1cc(Oc2ccccc2F)ccc1-n1ncc(C(=O)c2cc3cc(OCC(F)F)c(NS(=O)(=O)N4CCOCC4)cc3[nH]2)c1N` [Example 4-22-005, N-[2-[5-amino-1-[4-(2-fluorophenoxy)-2-methylphenyl]pyrazole-4-carbonyl]-5-(2,2-difluoroethoxy)-1H-indol-6-yl]morpholine-4-sulfonamide], for which the results for the IC50 on human Src enzyme, on human Yes1 enzyme and on human Lck enzyme were 44 nM, 1.8 nM and 20 nM, respectively.
Regarding `Cc1cc(Oc2ccccc2F)ncc1-n1ncc(C(=O)c2cc3cc(OCC(F)F)c(NS(=O)(=O)N4CCOCC4)cc3[nH]2)c1N` [Example 4-22-006, N-[2-[5-amino-1-[6-(2-fluorophenoxy)-4-methylpyridin-3-yl]pyrazole-4-carbonyl]-5-(2,2-difluoroethoxy)-1H-indol-6-yl]morpholine-4-sulfonamide], the IC50 at human Src enzyme was 130 nM; on human Yes1 enzyme, 1.9 nM; at human Lck enzyme, 51 nM.
The like results for `Cc1cc(Oc2c(F)cccc2F)ncc1-n1ncc(C(=O)c2cc3cc(OCC(F)F)c(N4CCN(S(C)(=O)=O)CC4)cc3[nH]2)c1N` [Example 4-23-001, {5-amino-1-[6-(2,6-difluorophenoxy)-4-methylpyridin-3-yl]pyrazol-4-yl}-[5-(2,2-difluoroethoxy)-6-(4-methylsulfonylpiperazin-1-yl)-1H-indol-2-yl]methanone] were, in that order, 16 nM, 1.3 nM and 8.2 nM.
In the case of `Cc1cc(Oc2ccccc2F)ccc1-n1ncc(C(=O)c2cc3cc(OC(F)F)c(N4CCN(S(C)(=O)=O)CC4)cc3[nH]2)c1N` [Example 4-23-002, [5-amino-1-[4-(2-fluorophenoxy)-2-methylphenyl]pyrazol-4-yl]-[5-(difluoromethoxy)-6-(4-methylsulfonylpiperazin-1-yl)-1H-indol-2-yl]methanone], the IC50 at human Src enzyme was 44 nM; at human Yes1 enzyme, 1.6 nM; at human Lck enzyme, 20 nM.
The like results for `Cc1cc(Oc2ccccc2F)cc(F)c1-n1ncc(C(=O)c2cc3cc(OC(F)F)c(N4CCN(S(C)(=O)=O)CC4)cc3[nH]2)c1N` [Example 4-23-003, [5-amino-1-[2-fluoro-4-(2-fluorophenoxy)-6-methylphenyl]pyrazol-4-yl]-[5-(difluoromethoxy)-6-(4-methylsulfonylpiperazin-1-yl)-1H-indol-2-yl]methanone] were, in that order, 62 nM, 10 nM and 21 nM.
On to `Cc1cc(Oc2ccccc2F)ncc1-n1ncc(C(=O)c2cc3cc(OC(F)F)c(N4CCN(S(C)(=O)=O)CC4)cc3[nH]2)c1N` [Example 4-23-004, [5-amino-1-[6-(2-fluorophenoxy)-4-methylpyridin-3-yl]pyrazol-4-yl]-[5-(difluoromethoxy)-6-(4-methylsulfonylpiperazin-1-yl)-1H-indol-2-yl]methanone], for which the results for the IC50 at human Src enzyme, at human Yes1 enzyme and at human Lck enzyme were 48 nM, 5.5 nM and 18 nM, respectively.
Take `Cc1cc(Oc2ccccc2F)ccc1-n1ncc(C(=O)c2cc3cc(OCC(F)F)c(N4CCN(S(C)(=O)=O)CC4)cc3[nH]2)c1N` [Example 4-23-005, [5-amino-1-[4-(2-fluorophenoxy)-2-methylphenyl]pyrazol-4-yl]-[5-(2,2-difluoroethoxy)-6-(4-methylsulfonylpiperazin-1-yl)-1H-indol-2-yl]methanone]: the IC50 came out at 16 nM on human Src enzyme, 1.7 nM at human Yes1 enzyme and 8.2 nM on human Lck enzyme.
Turning to `Cc1cc(Oc2ccccc2F)cc(F)c1-n1ncc(C(=O)c2cc3cc(OCC(F)F)c(N4CCN(S(C)(=O)=O)CC4)cc3[nH]2)c1N` [Example 4-23-006, [5-amino-1-[2-fluoro-4-(2-fluorophenoxy)-6-methylphenyl]pyrazol-4-yl]-[5-(2,2-difluoroethoxy)-6-(4-methylsulfonylpiperazin-1-yl)-1H-indol-2-yl]methanone], the IC50 is 22 nM at human Src enzyme, 2.7 nM at human Yes1 enzyme and 13 nM on human Lck enzyme.
The like results for `Cc1cc(Oc2ccccc2F)ncc1-n1ncc(C(=O)c2cc3cc(OCC(F)F)c(N4CCN(S(C)(=O)=O)CC4)cc3[nH]2)c1N` [Example 4-23-007, [5-amino-1-[6-(2-fluorophenoxy)-4-methylpyridin-3-yl]pyrazol-4-yl]-[5-(2,2-difluoroethoxy)-6-(4-methylsulfonylpiperazin-1-yl)-1H-indol-2-yl]methanone] were, in that order, 16 nM, 1.3 nM and 5.5 nM.
The like results for `Cc1cc(Oc2c(F)cccc2F)ncc1-n1ncc(C(=O)c2cc3cc(OCC(F)F)c(NC4COC4)cc3[nH]2)c1N` [Example 4-23-008, {5-amino-1-[6-(2,6-difluorophenoxy)-4-methylpyridin-3-yl]pyrazol-4-yl}-[5-(2,2-difluoroethoxy)-6-(oxetan-3-ylamino)-1H-indol-2-yl]methanone] were, in that order, 23 nM, 3.3 nM and 4.6 nM.
With `Cc1cc(Oc2ccccc2F)ccc1-n1ncc(C(=O)c2cc3cc(OC(F)F)c(NC4COC4)cc3[nH]2)c1N` [Example 4-23-009, [5-amino-1-[4-(2-fluorophenoxy)-2-methylphenyl]pyrazol-4-yl]-[5-(difluoromethoxy)-6-(oxetan-3-ylamino)-1H-indol-2-yl]methanone], the IC50 on human Src enzyme came to 22 nM; on human Yes1 enzyme, 3.2 nM; at human Lck enzyme it was 8.9 nM.
The like results for `Cc1cc(Oc2ccccc2F)ccc1-n1ncc(C(=O)c2cc3cc(OC(F)F)c(NC4CCN(S(C)(=O)=O)CC4)cc3[nH]2)c1N` [Example 4-23-010, [5-amino-1-[4-(2-fluorophenoxy)-2-methylphenyl]pyrazol-4-yl]-[5-(difluoromethoxy)-6-[(1-methylsulfonylpiperidin-4-yl)amino]-1H-indol-2-yl]methanone] were, in that order, 34 nM, 7.2 nM and 25 nM.
The like results for `Cc1cc(Oc2ccccc2F)cc(F)c1-n1ncc(C(=O)c2cc3cc(OC(F)F)c(NC4COC4)cc3[nH]2)c1N` [Example 4-23-011, [5-amino-1-[2-fluoro-4-(2-fluorophenoxy)-6-methylphenyl]pyrazol-4-yl]-[5-(difluoromethoxy)-6-(oxetan-3-ylamino)-1H-indol-2-yl]methanone] were, in that order, 63 nM, 7.6 nM and 19 nM.

The values are drawn from US10479780B2, “Aminopyrazole derivatives” (Chugai Seiyaku Kabushiki Kaisha, priority 2015, dated 2019).
